Values quoted from earlier work, collected in patent US20250176603A1, “Vegetable-Based Food Product” (L-CONE SP. Z O. O., priority 2023, published 2025).
“Also recorded” adds a separate entry of the source. Each block holds one compound with its values, some of them ahead of it.

How the values were obtained:
[1] = in vivo
DSS-induced colitis = DSS-induced colitis model
[2] = test system: diethylnitrosamine-induced hepatocarcinogenesis; conditions: rats
Ehrlich ascites tumor = conditions: mice
TPOAb antibody = conditions: 200 ug for 3 months
[3] = test system: acetic acid-induced ulcerative colitis; conditions: oral administration
[4] = test system: lipopolysaccharide (LPS)-activated BV2 microglia
[5] = test system: prostate cancer patients undergoing radiotherapy
[6] = test system: pancreatic cancer patients resistant to gemcitabine chemotherapy; conditions: 8 g/day in a divided dose for 11 months

level of bioavailability [1]: 74%
SMILES: C[S+]([O-])CCCCN=C=S (centres unmarked) [Sulforaphane]

SMILES: O=C1c2c(O)cc(O)cc2O[C@H](c2ccc(O)c(O)c2)[C@H]1O [taxifolin]
NF-κB activation (DSS-induced colitis): reduce

SMILES: C=CCC(=NOS(=O)(=O)O)S[C@@H]1O[C@H](CO)[C@@H](O)[C@H](O)[C@H]1O (stereo in doubt) [Sinigrin]
diethylnitrosamine-induced hepatocarcinogenesis [2]: inhibited

SMILES: C=CCN=C=S [allyl isothiocyanate]
cytotoxic effect (lung cancer cells): cytotoxic effect | Ehrlich ascites tumor growth (Ehrlich ascites tumor): inhibited | cytotoxic effect (bladder): cytotoxic effect

SMILES: O=[Se](=O)(O)O [sodium selenate]
TPOAb antibody levels (TPOAb antibody): significantly reduced

SMILES: COc1cc(C2Oc3cc([C@H]4Oc5cc(O)cc(O)c5C(=O)[C@@H]4O)ccc3OC2CO)ccc1O (some centres unmarked) [silybin]
IL-6 and TNF-α activity [3]: significant reduction

SMILES: C[Se]CC[C@H](N)C(=O)O [selenomethionine]
TPOAb antibody levels (TPOAb antibody): significantly reduced

SMILES: O=C(/C=C/C=C/c1ccc2c(c1)OCO2)N1CCCCC1 [piperine]
cytotoxic effects (K-562 cells): strong cytotoxic effects

SMILES: O=CC=Cc1ccccc1 [Cinnamaldehyde]
tau protein aggregation (tau protein): potential in inhibiting | production and expression of NO, IL-1b, IL-6 and TNF-a [4]: decrease

SMILES: COc1cc(/C=C/C(=O)CC(=O)/C=C/c2ccc(O)c(OC)c2)ccc1O [curcumin]
radiation side effects and therapeutic efficacy [5]: alleviate the side effects of radiation and enhance its therapeutic efficacy; also recorded: mitigate radiation side effects and enhance therapeutic efficacy | chances of longer survival [6]: significantly increased; also recorded: increased significantly
